From ChEMBL document CHEMBL3875185, “Structure-anticonvulsant activity studies in the group of (E)-N-cinnamoyl aminoalkanols derivatives monosubstituted in phenyl ring with 4-Cl, 4-CH3 or 2-CH3” (Bioorg Med Chem, 2017) come the findings set out here.

Calls of active or inactive are those of the source. The rule behind the calls is not given here.

Data set [1] is described as follows: Displacement of [35S]dATPaS from rat cerebral cortex P2Y receptor measured after 60 mins by scintillation counting method. (In general: Loss of bound radioactivity is the signal in a displacement assay; it reports binding, not function.)
Data set [2] can be described thus: Displacement of [35S]TBPS from rat cerebral cortex GABA-gated chloride channel measured after 60 mins by scintillation counting method.
Data set [3] can be described thus: Displacement of [3H]TCP from rat cerebral cortex phencyclidine receptor measured after 120 mins by scintillation counting method.
Data set [4] relates to Mus musculus. Kind of data set: Anticonvulsant activity in maximal electroshock induced seizure mouse model assessed as suppression in hindlimb tonic extension at 100 mg/kg, ip measured at 0.5 hrs post dose. Format: functional, organism-based.
For data set [5], the system named is Rattus norvegicus. Kind of data set: Neurotoxicity in Sprague-Dawley rat assessed as behavioral change at 30 mg/kg, po measured at 1 hr post dose. To be noted: in vivo. Type of data set: toxicity, organism-based.
The test system of data set [6] is Mus musculus. Kind of data set: Anticonvulsant activity in maximal electroshock induced seizure mouse model assessed as suppression in hindlimb tonic extension at 30 mg/kg, ip measured at 0.5 hrs post dose. Type of data set: functional, organism-based. For orientation: The maximal electroshock test induces tonic seizures with an electrical stimulus.
The subject of data set [7] is Rattus norvegicus. Kind of data set: Neurotoxicity in Sprague-Dawley rat assessed as behavioral change at 30 mg/kg, ip measured at 4 hrs post dose. Type of data set: toxicity, organism-based. To be noted: in vivo.
Data set [8] deals with Mus musculus. Kind of data set: Anticonvulsant activity in 6-Hz induced seizure mouse model assessed as restoration of normal activity within 10 secs from stimulation at 100 mg/kg, ip at 32 mA measured at […] post dose. Type of data set: functional, organism-based.
Data set [9] concerns Rattus norvegicus. Kind of data set: Neurotoxicity in Sprague-Dawley rat assessed as behavioral change at 30 mg/kg, po measured at 4 hrs post dose. To be noted: in vivo. Type of data set: toxicity, organism-based.
Data set [10] concerns Mus musculus. Kind of data set: Neurotoxicity in mouse assessed as induction of motor impairment at 100 mg/kg, ip measured at 4 hrs post dose by rotarod method. To be noted: in vivo. Type of data set: toxicity, organism-based. (In general: The rotarod test checks motor coordination on a turning rod.)
Data set [11] deals with Rattus norvegicus. Kind of data set: Neurotoxicity in Sprague-Dawley rat assessed as behavioral change at 30 mg/kg, po measured at […] post dose. Type of data set: toxicity, organism-based. To be noted: in vivo.
Data set [12] deals with Rattus norvegicus. Kind of data set: Neurotoxicity in Sprague-Dawley rat assessed as behavioral change at 30 mg/kg, po measured at 0.5 hrs post dose. Type of data set: toxicity, organism-based. To be noted: in vivo.
The test system of data set [13] is Mus musculus. Kind of data set: Anticonvulsant activity in 6-Hz induced seizure mouse model assessed as restoration of normal activity within 10 secs from stimulation at 100 mg/kg, ip at 32 mA measured at 0.5 hrs post dose. Format: functional, organism-based.
The subject of data set [14] is Rattus norvegicus. Kind of data set: Neurotoxicity in Sprague-Dawley rat assessed as behavioral change at 30 mg/kg, ip measured at 0.5 hrs post dose. Format: toxicity, organism-based. To be noted: in vivo.
For data set [15], the system named is Rattus norvegicus. Kind of data set: Neurotoxicity in Sprague-Dawley rat assessed as behavioral change at 30 mg/kg, ip measured at […] post dose. To be noted: in vivo. Type of data set: toxicity, organism-based.
For data set [16], the system named is Rattus norvegicus. Kind of data set: Neurotoxicity in Sprague-Dawley rat assessed as behavioral change at 30 mg/kg, ip measured at 1 hr post dose. Type of data set: toxicity, organism-based. To be noted: in vivo.
In data set [17] the test system is Mus musculus. Kind of data set: Anticonvulsant activity in pentylenetetrazole induced seizure mouse model assessed as no observable episode of clonic convulsion of at least 5 secs at 300 mg/kg, ip measured at 0.5 hrs post dose. Type of data set: functional, organism-based.
Data set [18] concerns Mus musculus. Kind of data set: Neurotoxicity in mouse assessed as induction of motor impairment at 300 mg/kg, ip measured at 4 hrs post dose by rotarod method. Format: toxicity, organism-based. To be noted: in vivo.
Data set [19] concerns Rattus norvegicus. Kind of data set: Neurotoxicity in Sprague-Dawley rat assessed as behavioral change at 30 mg/kg, ip measured at 2 hrs post dose. Format: toxicity, organism-based. To be noted: in vivo.
Data set [20] relates to Rattus norvegicus. Kind of data set: Neurotoxicity in Sprague-Dawley rat assessed as behavioral change at 30 mg/kg, po measured at 2 hrs post dose. Format: toxicity, organism-based. To be noted: in vivo.
Data set [21] deals with Rattus norvegicus. Kind of data set: Anticonvulsant activity in maximal electroshock induced seizure Sprague-Dawley rat model assessed as suppression in hindlimb tonic extension at 30 mg/kg, ip measured at […] post dose. Type of data set: functional, organism-based.
Data set [22] has as its system Mus musculus. Kind of data set: Neurotoxicity in mouse assessed as induction of motor impairment at 300 mg/kg, ip measured at 0.5 hrs post dose by rotarod method. To be noted: in vivo. Type of data set: toxicity, organism-based.
Data set [23] concerns Mus musculus. Kind of data set: Neurotoxicity in mouse assessed as induction of motor impairment at 30 mg/kg, ip measured at 4 hrs post dose by rotarod method. Format: toxicity, organism-based. To be noted: in vivo.
The subject of data set [24] is Mus musculus. Kind of data set: Anticonvulsant activity in maximal electroshock induced seizure mouse model assessed as suppression in hindlimb tonic extension at 300 mg/kg, ip measured at 0.5 hrs post dose. Type of data set: functional, organism-based.
Data set [25] has as its system Mus musculus. Kind of data set: Neurotoxicity in mouse assessed as induction of motor impairment at 30 mg/kg, ip measured at 0.5 hrs post dose by rotarod method. Type of data set: toxicity, organism-based. To be noted: in vivo.
Data set [26] has as its system Mus musculus. Kind of data set: Anticonvulsant activity in maximal electroshock induced seizure mouse model assessed as suppression in hindlimb tonic extension at 30 mg/kg, ip measured at 4 hrs post dose. Format: functional, organism-based.
Data set [27] concerns Mus musculus. Kind of data set: Anticonvulsant activity in maximal electroshock induced seizure mouse model assessed as suppression in hindlimb tonic extension at 300 mg/kg, ip measured at 4 hrs post dose. Format: functional, organism-based.
Data set [28] relates to Mus musculus. Kind of data set: Anticonvulsant activity in maximal electroshock induced seizure mouse model assessed as suppression in hindlimb tonic extension at 100 mg/kg, ip measured at 4 hrs post dose. Type of data set: functional, organism-based.
Data set [29] in a line: Displacement of [3H]batrachotoxinin from rat cerebral cortex sodium channel site 2 measured after 60 mins by scintillation counting method.
The nature of data set [30]: Displacement of [3H]D888 from rat cerebral cortex calcium channel L type verapamil binding site measured after 120 mins by scintillation counting method.

In the case of `Nc1ncnc2c1ncn2[C@H]1C[C@H](O)[C@@H](COP(O)(=S)OP(=O)(O)OP(=O)(O)O)O1` (some centres not stated), the IC50 in data set [1] was determined as 29 nM.
For `C=C(C)[C@@H]1[C@H]2OC(=O)[C@@H]1[C@]1(O)C[C@H]3O[C@]34C(=O)O[C@H]2[C@]14C` [PICROTOXININ], in data set [2], the IC50 was determined as 77 nM.
On to `C[C@]12N[C@H](Cc3ccccc31)c1ccccc12` [DIZOCILPINE], for which, in data set [3], the IC50 came to 4.6 nM.
Turning to `CCC(O)CNC(=O)/C=C/c1ccccc1C` (configuration not stated), the outcome in the data set on Mus musculus [4], with Mus musculus [6], in the data set on Mus musculus [8], with Mus musculus [13], in the data set with Mus musculus [17] and in the data set on Rattus norvegicus [21] was Active. For the same compound, the result in the data set with Mus musculus [24] was Active. Also, the Activity entry in the data set with Rattus norvegicus [5], in the data set on Rattus norvegicus [7], in the data set on Rattus norvegicus [9], in the data set with Mus musculus [10], in the data set on Rattus norvegicus [11] and with Rattus norvegicus [12] was “Non-Toxic” in each case. Also, the Activity entry with Rattus norvegicus [14], with Rattus norvegicus [15], in the data set with Rattus norvegicus [16], in the data set on Mus musculus [18], in the data set with Rattus norvegicus [19] and in the data set with Rattus norvegicus [20] was “Non-Toxic” each time. The Activity result in the data set with Mus musculus [22] is reported as “Toxic”; in the data set with Mus musculus [23], “Non-Toxic”.
`Cc1ccccc1/C=C/C(=O)N[C@H]1CC[C@H](O)CC1`: the Activity result in the data set on Mus musculus [25], in the data set on Rattus norvegicus [5], with Rattus norvegicus [9], in the data set on Rattus norvegicus [11], with Rattus norvegicus [12] and in the data set with Mus musculus [18] was “Non-Toxic” each time. The Activity entry in the data set on Rattus norvegicus [20] and in the data set on Mus musculus [23] was “Non-Toxic” each time. Further, the result in the data set on Mus musculus [26], in the data set on Mus musculus [27] and with Mus musculus [28] was Active.
Compound `COc1ccc(C(=O)O[C@H]2CC[C@@]3(C)[C@H]4CC[C@H]5[C@]6(O)C[C@H](O)[C@@]7(O)[C@@H](CN8C[C@@H](C)CC[C@H]8[C@@]7(C)O)[C@]6(O)C[C@@]53O[C@@]24O)cc1OC` showed an IC50 in data set [29] of 4000 nM.
For `COc1ccc(CCN(C)CCCC(C#N)(c2cc(OC)c(OC)c(OC)c2)C(C)C)cc1OC` (configuration not stated) [GALLOPAMIL], the IC50 in data set [30] came out at 15 nM.

Broadly, the IC50 is the concentration needed to halve the response being measured.
